# Results as given in article PMC6218581, “Resurrecting the Regulatory Properties of the Ostreococcus tauri ADP-Glucose Pyrophosphorylase Large Subunit” (Frontiers in Plant Science, 2018).
# What was measured:
# [1] = target: T1, StuSK441A/OtaL hybrid heterotetramer (Solanum tuberosum; Ostreococcus tauri, UniProt A0A096P9X2+P23509, A0A096P9X2:R476K/P23509:K511A, form not given); assay: ADP-[…]Glc formation, activation curve, Hill fit; assay type: biochemical; settings: read-out: A0.5; allosteric activator; 50 mM HEPPS pH 8.0, 10 mM MgCl2, 1 mM Glc1P, 2.5 mM ATP, 2 mM DTT, 37°C, no Pi
# T1 construct: hybrid heterotetramer: potato tuber small subunit K441A co-expressed with O. tauri large subunit in E. coli AC70R1-504; purified
# T1 sequence (P23509 73-521 K511A, form open): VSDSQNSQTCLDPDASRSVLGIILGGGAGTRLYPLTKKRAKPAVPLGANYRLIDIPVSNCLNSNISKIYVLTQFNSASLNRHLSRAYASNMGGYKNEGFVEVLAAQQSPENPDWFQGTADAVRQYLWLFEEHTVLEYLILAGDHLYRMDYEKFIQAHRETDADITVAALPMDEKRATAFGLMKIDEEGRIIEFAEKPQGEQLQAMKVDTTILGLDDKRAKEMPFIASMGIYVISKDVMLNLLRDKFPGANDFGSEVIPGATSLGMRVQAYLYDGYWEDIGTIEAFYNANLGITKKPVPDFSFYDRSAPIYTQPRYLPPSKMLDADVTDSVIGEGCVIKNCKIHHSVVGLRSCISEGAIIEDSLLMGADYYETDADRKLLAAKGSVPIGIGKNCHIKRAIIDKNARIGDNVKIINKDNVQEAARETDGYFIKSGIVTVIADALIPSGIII
# T1 sequence (A0A096P9X2 entry or part of it R476K, form open): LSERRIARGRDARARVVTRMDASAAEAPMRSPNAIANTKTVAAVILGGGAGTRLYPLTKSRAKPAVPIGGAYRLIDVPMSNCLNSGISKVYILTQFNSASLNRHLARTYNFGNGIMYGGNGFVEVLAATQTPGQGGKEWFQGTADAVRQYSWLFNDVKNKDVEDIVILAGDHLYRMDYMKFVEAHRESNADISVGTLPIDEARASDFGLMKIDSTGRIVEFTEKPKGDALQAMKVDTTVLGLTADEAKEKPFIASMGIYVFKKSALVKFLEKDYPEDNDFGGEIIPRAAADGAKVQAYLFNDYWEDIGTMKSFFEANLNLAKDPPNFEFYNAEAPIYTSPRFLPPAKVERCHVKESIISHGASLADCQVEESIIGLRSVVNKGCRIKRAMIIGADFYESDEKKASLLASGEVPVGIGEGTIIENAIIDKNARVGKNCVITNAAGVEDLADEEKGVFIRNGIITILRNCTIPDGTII
# [2] = target: T2, OtaS/OtaL ADP-Glc PPase (Ostreococcus tauri, UniProt A0A090M9E5+A0A096P9X2, A0A096P9X2:R476K/A0A090M9E5:K508R, form not given); assay: ADP-[…]Glc formation, activation curve, Hill fit; assay type: biochemical; settings: allosteric activator; 50 mM HEPPS pH 8.0, 10 mM MgCl2, 1 mM Glc1P, 2.5 mM ATP, 37°C, no Pi; read-out: A0.5
# T2 construct: gene OT_ostta07g03070; heterotetramer alpha2beta2, co-expressed from pMAB5/OtaS and pMAB6/OtaL in E. coli AC70R1-504; DEAE and Resource PHE purification, no tag mentioned
# T2 sequence (A0A096P9X2 entry or part of it R476K, form open): as above
# T2 sequence (A0A090M9E5 entry or part of it K508R, form open): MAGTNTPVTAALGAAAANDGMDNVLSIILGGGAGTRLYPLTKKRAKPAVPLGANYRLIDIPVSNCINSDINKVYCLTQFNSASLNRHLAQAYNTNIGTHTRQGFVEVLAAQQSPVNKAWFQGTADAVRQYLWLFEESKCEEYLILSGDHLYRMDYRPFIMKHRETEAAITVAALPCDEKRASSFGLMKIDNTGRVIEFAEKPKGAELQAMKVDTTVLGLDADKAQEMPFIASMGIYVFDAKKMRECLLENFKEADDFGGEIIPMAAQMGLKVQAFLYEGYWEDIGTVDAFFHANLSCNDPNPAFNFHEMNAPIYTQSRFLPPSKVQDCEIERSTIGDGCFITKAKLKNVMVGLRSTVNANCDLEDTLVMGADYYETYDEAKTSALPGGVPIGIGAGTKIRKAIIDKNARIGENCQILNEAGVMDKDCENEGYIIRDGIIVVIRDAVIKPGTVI
# [3] = target: T3, OtaS/OtaL ADP-Glc PPase (Ostreococcus tauri, UniProt A0A090M9E5+A0A096P9X2, A0A096P9X2:L24M/A0A090M9E5:K508R); assay: ADP-[…]Glc formation, activation curve, Hill fit; assay type: biochemical; parameters: gene OT_ostta07g03070; heterotetramer alpha2beta2, co-expressed from pMAB5/OtaS and pMAB6/OtaL in E. coli AC70R1-504; DEAE and Resource PHE purification, no tag mentioned; settings: allosteric activator; 50 mM HEPPS pH 8.0, 10 mM MgCl2, 1 mM Glc1P, 2.5 mM ATP, 37°C, no Pi; read-out: A0.5
# T3 sequence (A0A090M9E5 entry or part of it K508R): as the sequence (A0A090M9E5 entry or part of it K508R, form open) above
# T3 sequence (A0A096P9X2 entry or part of it L24M): as the sequence (A0A096P9X2 entry or part of it R476K, form open) above, with L1M, K453R counted along it
# [4] = target: T4, OtaS/OtaL ADP-Glc PPase (Ostreococcus tauri, UniProt A0A090M9E5+A0A096P9X2, A0A096P9X2:R476K, form not given); assay: ADP-[…]Glc formation, activation curve, Hill fit; assay type: biochemical; settings: allosteric activator; 50 mM HEPPS pH 8.0, 10 mM MgCl2, 1 mM Glc1P, 2.5 mM ATP, 37°C, no Pi; read-out: A0.5
# T4 construct: gene OT_ostta07g03070; heterotetramer alpha2beta2, co-expressed from pMAB5/OtaS and pMAB6/OtaL in E. coli AC70R1-504; DEAE and Resource PHE purification, no tag mentioned
# T4 sequence (A0A096P9X2 entry or part of it R476K, form open): as the sequence (A0A096P9X2 entry or part of it R476K, form open) above
# T4 sequence (A0A090M9E5 entry or part of it, form open): as the sequence (A0A090M9E5 entry or part of it K508R, form open) above, with R443K counted along it
# [5] = target: T5, OtaS/OtaL ADP-Glc PPase (Ostreococcus tauri, UniProt A0A090M9E5+A0A096P9X2, A0A096P9X2:L24M); assay: ADP-[…]Glc formation, activation curve, Hill fit; assay type: biochemical; parameters: gene OT_ostta07g03070; heterotetramer alpha2beta2, co-expressed from pMAB5/OtaS and pMAB6/OtaL in E. coli AC70R1-504; DEAE and Resource PHE purification, no tag mentioned; settings: allosteric activator; 50 mM HEPPS pH 8.0, 10 mM MgCl2, 1 mM Glc1P, 2.5 mM ATP, 37°C, no Pi; read-out: A0.5
# T5 sequence (A0A090M9E5 entry or part of it): as the sequence (A0A090M9E5 entry or part of it K508R, form open) above, with R443K counted along it
# T5 sequence (A0A096P9X2 entry or part of it L24M): as the sequence (A0A096P9X2 entry or part of it R476K, form open) above, with L1M, K453R counted along it
# [6] = target: T6, StuSK441A/OtaL hybrid heterotetramer (Solanum tuberosum; Ostreococcus tauri, UniProt A0A096P9X2+P23509, A0A096P9X2:L24M/P23509:K511A); assay: ADP-[…]Glc formation, activation curve, Hill fit; assay type: biochemical; settings: read-out: A0.5; allosteric activator; 50 mM HEPPS pH 8.0, 10 mM MgCl2, 1 mM Glc1P, 2.5 mM ATP, 2 mM DTT, 37°C, no Pi
# T6 construct: hybrid heterotetramer: potato tuber small subunit K441A co-expressed with O. tauri large subunit in E. coli AC70R1-504; purified
# T6 sequence (A0A096P9X2 entry or part of it L24M): as the sequence (A0A096P9X2 entry or part of it R476K, form open) above, with L1M, K453R counted along it
# T6 sequence (P23509 73-521 K511A): as the sequence (P23509 73-521 K511A, form open) above
# [7] = target: T5, OtaS/OtaL ADP-Glc PPase; parameters: gene OT_ostta07g03070; settings: read-out: I0.5; allosteric inhibitor; 3PGA present at its A0.5 (0.61 mM); 50 mM HEPPS pH 8.0, 10 mM MgCl2, 1 mM Glc1P, 2.5 mM ATP, 37°C
# Text: (§1) ADP-Glc PPase activity, inhibition curve, Hill fit on OtaS/OtaL ADP-Glc PPase
# [8] = target: T3, OtaS/OtaL ADP-Glc PPase; parameters: gene OT_ostta07g03070; settings: read-out: I0.5; allosteric inhibitor; 3PGA present at its A0.5 (1.6 mM); 50 mM HEPPS pH 8.0, 10 mM MgCl2, 1 mM Glc1P, 2.5 mM ATP, 37°C
# Text: as §1
Compound,EC50 [1],EC50 [2],EC50 [3],EC50 [4],EC50 [5],EC50 [6],IC50 [7],IC50 [8]
O=C(O)[C@H](O)COP(=O)(O)O [3PGA],400 ± 20 µM,740 ± 80 µM,1600 ± 600 µM,190 ± 10 µM,610 ± 30 µM,1200 ± 100 µM,–,–
O=P(O)(O)O [Pi],–,–,–,–,–,–,179 ± 4 µM,1600 ± 200 µM
